Consider 104 molecules from ChEMBL document CHEMBL3507680, “University of Dundee, Gates Library screen for HepG2 cell viability”.

This series can be described thus: Human HepG2 cell viability assay in 384 well format. Format: toxicity, cell-based. Details: dose 125 nL, time 70.5 hour; cytotoxicity at 70.5 h: concentration not given beside the values. The following applies: HepG2 cells, read-out: Inhibition.

For the molecule `CCC1(CC)CC(=O)N(CC(O)c2cccc(Br)c2)C1=O` (centres undefined), the cytotoxicity at 70.5 h turned out to be 28.9%.
For the molecule `Cc1cc(CN(C)C(=O)Nc2ccccc2C)no1`, the cytotoxicity at 70.5 h is -4.53%.
Next, `OC(CNCc1nnc2ccccn12)c1ccc2c(c1)OCCCO2` (centres undefined): -8.23%; `CC(CN1CCOC1=O)NC(=O)c1cccc(Cl)c1Cl` (centres undefined): -4.07%; `CCC1(CC)CC(=O)N(CC(O)c2ccc(F)cc2)C1=O` (centres undefined): -9.84%.
For `Cc1ccc(C(CNC(=O)c2cc(=O)c3ccccc3[nH]2)N(C)C)cc1` (centres undefined) the value was -4.48%; for `CC(CN1CCOC1=O)NC(=O)c1cccc(C#N)c1` (centres undefined), -3.83%; for `COCC(C)NC(=O)N1CCN(S(C)(=O)=O)CC1` (centres undefined), -2.46%.
As for `CCC1(CC)CC(=O)N(CC(O)c2cccc(F)c2)C1=O` (centres undefined), the cytotoxicity at 70.5 h is -3.42%.
For `O=S(=O)(c1ccccc1N1CC(n2cccn2)C1)C(F)(F)F` the value was 1.67%; for `CC(C)c1nnc2n1CCN(Cc1cc(Cl)c3c(c1)OCCO3)C2`, -4.04%.
With `CCCOc1ccc2c(c1)OCC(CNC1CCc3ncnn3C1)=C2` (centres undefined), the cytotoxicity at 70.5 h is -6.97%.
In the case of `O=C(Nc1cccc(N2CCOCC2)c1)N[C@H](CO)c1ccccc1`, the cytotoxicity at 70.5 h was -1.11%.
Regarding `CC(CN1CCOCC1)NC(=O)N1CCCC1` (centres undefined), the cytotoxicity at 70.5 h was -3.6%.
In the case of `Cc1ccc(CNC(=O)c2ccc(=O)n(C)n2)c(OC2CCCC2)c1`, the cytotoxicity at 70.5 h is -5.94%.
Consider `Cn1nnnc1SCC1(O)CCCCC1`, for which the cytotoxicity at 70.5 h was -5.84%.
`CN(Cc1cc(Br)cs1)Cc1nnsc1Cl`: the cytotoxicity at 70.5 h was -8.26%.
On to `CN1CCCN(c2ccc(F)cc2CNC(=O)c2cccnc2)CC1`, for which the cytotoxicity at 70.5 h was determined as 29.2%.
Regarding `O=S(=O)(NCCCn1cncn1)c1ccc2c(c1)CCCC2`, the cytotoxicity at 70.5 h was -5.74%.
As for `Cc1cc(C)n(CCN2CCC(N(C)Cc3noc(C4CC4)n3)C2)n1` (centres undefined), the cytotoxicity at 70.5 h is -4.52%.
Take `CCNC(=O)c1ccc(NC(=O)N(C)Cc2cc(C)on2)c(C)c1`: the cytotoxicity at 70.5 h is -5.12%.
Consider `O=S(=O)(NCCCn1cncn1)c1ccc2c(c1)OCCCO2`, for which the cytotoxicity at 70.5 h is -6.28%.
`C1=C(CNC2CCc3ncnn3C2)COc2ccccc21` (centres undefined): the cytotoxicity at 70.5 h was -9.66%.
Next, `CC(C)c1nnc2n1CCN(Cc1cc(Cl)c3c(c1)OCO3)C2`: -1.27%; `CCOCCN1CCN(CC(=O)NC2(C#N)CCCC2)CC1C` (centres undefined): 10.7%.
With `Cc1nc(C(C)(C)NCc2ncc(C3CC3)o2)sc1C`, the cytotoxicity at 70.5 h is 2.05%.
Take `CCN(CC)CCn1cc(NC(=O)CNc2ccccc2OC)cn1`: the cytotoxicity at 70.5 h came to 7.01%.
Next, `CNS(=O)(=O)c1cc(C(=O)NC2COc3ccccc3C2)ccc1OC` (centres undefined): 6.83%; `CC(C)(NCc1ccc(C#N)cc1)c1ccc2c(c1)OCO2`: 12.3%; `CC(C)c1ccc(OCCC(=O)NCCC(=O)N(C)C)cc1`: -8.34%.
Turning to `CC(C)c1ccc(OCCC(=O)N(C)CC(N)=O)cc1`, the cytotoxicity at 70.5 h was -12.9%.
Next, `Cc1nc(-c2cc(C(=O)O)co2)cs1`: -9.39%; `Cn1cnc2c1CCN(CC(=O)NC1CCCCNC1=O)C2` (centres undefined): 15.2%; `Cc1occc1C(=O)N1CCCN(Cc2ncc(Cl)n2C)CC1`: -7.84%.
For the molecule `Cc1cnn(CC(C)NCc2cc(=O)n3cc(C)ccc3n2)c1` (centres undefined), the cytotoxicity at 70.5 h was -6.57%.
Turning to `CC(NC(=O)NC1CCN(CC2CCCC2)CC1)c1nccs1` (centres undefined), the cytotoxicity at 70.5 h was -6.39%.
As for `COCCN(C(=O)c1ccsc1)c1ccc(C#N)cc1`, the cytotoxicity at 70.5 h was -3.69%.
For the molecule `Cc1nc(-c2cc(C(=O)NC(C)(C(=O)O)C(C)C)co2)cs1` (centres undefined), the cytotoxicity at 70.5 h was -7.3%.
With `CC(C)c1ccc(OCCC(=O)N(C)C)cc1`, the cytotoxicity at 70.5 h is 12.7%.
Regarding `O=C(NCCSC1CCCC1)c1cc(Cl)ccn1`, the cytotoxicity at 70.5 h was 22.7%.
As to `O=C(NCCSC1CCCC1)c1cnccn1`, the cytotoxicity at 70.5 h is 29.4%.
As for `CC1COCCN1C(=O)c1ccc(=O)n(CCOc2ccccc2)n1` (centres undefined), the cytotoxicity at 70.5 h is -5.11%.
`COc1ccc(C2CCCN2c2ccc(C#N)cn2)c(OC)c1` (centres undefined): the cytotoxicity at 70.5 h was determined as 4.11%.
As to `CCC1CCCCN1C(=O)CCn1cnc2sccc2c1=O` (centres undefined), the cytotoxicity at 70.5 h is -11.1%.
Regarding `CNC(=O)C1CCCCN1C(=O)CCn1cnc2sccc2c1=O` (centres undefined), the cytotoxicity at 70.5 h is -1.4%.
As to `COc1ccc(C2CCCN2c2cnccn2)c(OC)c1` (centres undefined), the cytotoxicity at 70.5 h was -2.67%.
`Cc1nccn1-c1cc(CNS(=O)(=O)N2CCCC(C)C2)ccn1` (centres undefined): the cytotoxicity at 70.5 h was determined as 18%.
Next, `O=C(NCC(F)(F)F)c1nnn(-c2ccccc2)c1C(F)(F)F`: -4.56%; `COC(=O)c1ccc(N2CCN(C(=O)C(C)C)C(C)C2)cc1` (centres undefined): 26.6%; `COc1ccc(N2CCC(NCc3csc(C(C)C)n3)CC2)cc1`: 4.75%.
Take `Cc1cc(NC(=O)NC(C)(C)c2nc(C)c(C)s2)no1`: the cytotoxicity at 70.5 h is -8.02%.
Regarding `CCCOCCOC(=O)c1ccc2c(c1)[nH]c(=O)n2C`, the cytotoxicity at 70.5 h stood at 11.7%.
Next, `NC(=O)CN1CCN(CC2CC2)c2ccccc21`: 13.1%; `Cc1cc(NC(=O)CCNC(C)(C)c2nc(C)c(C)s2)no1`: -5.95%; `O=C(NCc1nncn1C1CC1)C1(c2cccc(F)c2)CCOCC1`: -9.71%.
For `O[C@@H]1Cc2ccccc2[C@@H]1Nc1ncccc1F`, the cytotoxicity at 70.5 h was -9.59%.
Consider `Cc1csc(CN(CC2CCCO2)C(=O)c2cccnc2C)n1` (centres undefined), for which the cytotoxicity at 70.5 h is -6.56%.
`CCCn1nnnc1CSc1nccn1CC`: the cytotoxicity at 70.5 h was -0.835%.
For `Cc1cc(C(=O)NCC2CCCO2)c(C)n1-c1cccnc1` (centres undefined) the value was -10.8%; for `Cc1csc(CN(C)CCCOc2cccc(C#N)c2)n1`, 13.7%; for `Cc1cc(CN2CCN(CC(=O)NC3(C#N)CCCCC3)CC2)on1`, 2.07%.
Consider `CC(c1ncc(C(C)(C)C)o1)N1CCN(Cc2ccco2)CC1` (centres undefined), for which the cytotoxicity at 70.5 h was -5.45%.
Consider `Cc1nc(CN[C@H]2CCCN(C(=O)OC(C)(C)C)C2)cs1`, for which the cytotoxicity at 70.5 h was -3.34%.
Next, `CC1CCc2nc(NC(=O)CN(C)C(=O)c3ccco3)sc2C1` (centres undefined): 28.3%.
With `Cc1cc(NCCNc2ccc(C#N)cn2)nc(C)n1`, the cytotoxicity at 70.5 h is -6.84%.
Take `COCCOc1ccccc1NC(C)C(=O)NC(=O)NC(C)(C)C` (centres undefined): the cytotoxicity at 70.5 h is -15.9%.
For `CCN(CC)c1nc2sc(C(=O)NCC(=O)OC)cc2s1` the value was 19.9%.
For the molecule `O=S(=O)(Cc1ccccc1)NCC1CCCN(Cc2cccs2)C1` (centres undefined), the cytotoxicity at 70.5 h is -0.373%.
On to `Cc1csc(CCNc2ccc(C#N)cc2F)n1`, for which the cytotoxicity at 70.5 h was -10.7%.
Next, `CS(=O)(=O)NCC1CCCCN1Cc1ccccc1C#N` (centres undefined): -10.5%; `c1csc(-c2cc(CN3CCN(c4nccs4)CC3)no2)c1`: -10.2%; `COC(=O)N1CCCC(NC(=O)NCc2nc(C)cs2)C1` (centres undefined): -8.72%.
As for `Cc1cc(N2CCN(C(=O)c3cn(C)c4ccccc34)CC2)nc(C)n1`, the cytotoxicity at 70.5 h worked out at 20.3%.
`COC(=O)N1CCCC(NC(=O)NCc2ccc(C)nc2)C1` (centres undefined): the cytotoxicity at 70.5 h was -4.96%.
With `Cc1noc(C(C)N2CCN(c3ncnc4sccc34)CC2)n1` (centres undefined), the cytotoxicity at 70.5 h was -7.54%.
On to `CC(NC(=O)c1cc(N2CCNC2=O)ccc1F)c1ccc(F)cc1` (centres undefined), for which the cytotoxicity at 70.5 h was -4.65%.
Consider `Cc1csc(C2CCCCN2C(=O)c2cnn3ccc(C)nc23)n1` (centres undefined), for which the cytotoxicity at 70.5 h is -18.6%.
In the case of `Cc1ccn2ncc(C(=O)N3CCCC(c4noc(C)n4)C3)c2n1` (centres undefined), the cytotoxicity at 70.5 h was 14.9%.
Turning to `CN(C)c1ccccc1CN1CCCCC1CNS(C)(=O)=O` (centres undefined), the cytotoxicity at 70.5 h is -4.51%.
For `COC(=O)N1CCCC(NC(=O)NCc2cccc(C)n2)C1` (centres undefined) the value was -6.49%; for `Cc1ccn2ncc(C(=O)N3CCCC(c4cc(C)[nH]n4)C3)c2n1` (centres undefined), -7.17%; for `Cc1nn(C)c(C)c1C1CCCN1CCOc1ccccc1C#N` (centres undefined), 1.39%.
Next, `O=C1CCCN1CCc1nc(-c2ccsc2)no1`: -14.2%.
For `Cn1cc(C2CCCN2C(=O)COC2CCCCC2)cn1` (centres undefined) the value was -11.1%; for `COc1ccc2c(c1)CCCN2C(=O)CNCC1CN(C)CCO1` (centres undefined), 12.1%; for `Cc1nn(C(C)(C)C)c(=O)n1CC(=O)NC(C)(C)C`, 10.6%.
Turning to `COCC(C)NC(=O)c1cncc(Br)c1` (centres undefined), the cytotoxicity at 70.5 h was -0.743%.
For `Clc1ccc(OCCNC2(c3ccc(Br)cc3)CCOCC2)cc1` the value was 9.53%.
`O=C(c1csc(-c2ccco2)n1)N(CC1CCOC1)C1CC1` (centres undefined): the cytotoxicity at 70.5 h was 4.66%.
Next, `O=C(NCc1ccc(-n2cncn2)nc1)N(CC1CCOC1)C1CC1` (centres undefined): -5.41%; `Cc1ccc(C(=O)N(Cc2ccccc2F)C2CC2)c(=O)[nH]1`: 7.09%.
On to `COc1ccc(OC)c(CN(C(=O)c2ccc(C)[nH]c2=O)C2CC2)c1`, for which the cytotoxicity at 70.5 h was 3.46%.
On to `Cc1ccc(C(=O)N(Cc2ccc(F)cc2)C2CC2)c(=O)[nH]1`, for which the cytotoxicity at 70.5 h was -3.98%.
Regarding `CC(C)(C)OC(=O)NCC(=O)NCc1ccc(Cl)s1`, the cytotoxicity at 70.5 h was -0.913%.
Consider `CC(NC(=O)COc1ccccc1I)C1CC1` (centres undefined), for which the cytotoxicity at 70.5 h is -1.97%.
On to `COc1ccccc1C1(C(=O)N2CCN(CC(C)O)CC2)CC1` (centres undefined), for which the cytotoxicity at 70.5 h was -0.267%.
Take `CC(C)OC(=O)N1CCC(Nc2ncc(Br)cn2)CC1`: the cytotoxicity at 70.5 h is -2.18%.
Consider `Cc1nc(CSCCC(=O)NCC(=O)NC(C)C)cs1`, for which the cytotoxicity at 70.5 h was found to be 1.26%.
With `CN(C)CC1CN(CC(=O)N2CCc3ccccc32)CCO1` (centres undefined), the cytotoxicity at 70.5 h amounted to 11.8%.
With `CN(C)C1CCCN(C(=O)NCCNC(=O)C2CCCCC2)C1` (centres undefined), the cytotoxicity at 70.5 h came out at 3.73%.
Regarding `COCc1ccccc1C(=O)NCC(O)c1ccccc1F` (centres undefined), the cytotoxicity at 70.5 h was -2.57%.
Next, `CC(C)(C)c1n[nH]cc1CNCC1CCN(CC(F)(F)F)C1` (centres undefined): -6.93%; `CC(C)(C)c1n[nH]cc1CNCC1CCN(C2CC2)C1` (centres undefined): -6.24%.
`CC(NCc1ccc(OCC(N)=O)cc1)c1ccc(Cl)cc1` (centres undefined): the cytotoxicity at 70.5 h worked out at 15.5%.
